How the values were obtained:
Thymidylate synthase [1] = biological target: T1, Thymidylate synthase (Lactobacillus casei, UniProt P00469); assay: Compound was evaluated for the inhibition at a given concentration against Lactobacillus casei TS; design: species or system Lacticaseibacillus casei
T1 sequence (P00469 whole entry): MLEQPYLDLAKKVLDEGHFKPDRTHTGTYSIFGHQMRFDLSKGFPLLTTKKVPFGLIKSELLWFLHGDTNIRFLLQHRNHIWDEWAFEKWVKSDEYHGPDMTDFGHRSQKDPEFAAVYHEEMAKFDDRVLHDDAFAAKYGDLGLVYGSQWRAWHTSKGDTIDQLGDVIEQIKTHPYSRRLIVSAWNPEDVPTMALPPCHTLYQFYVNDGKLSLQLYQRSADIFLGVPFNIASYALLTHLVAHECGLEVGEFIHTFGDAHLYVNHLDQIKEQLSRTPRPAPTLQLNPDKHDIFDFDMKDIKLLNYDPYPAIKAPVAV

Thymidylate synthase [2] = biological target: T2, Thymidylate synthase (Homo sapiens, UniProt P04818); assay: Compound was evaluated for the inhibition at a given concentration against recombinant human TS
T2 sequence (P04818 whole entry): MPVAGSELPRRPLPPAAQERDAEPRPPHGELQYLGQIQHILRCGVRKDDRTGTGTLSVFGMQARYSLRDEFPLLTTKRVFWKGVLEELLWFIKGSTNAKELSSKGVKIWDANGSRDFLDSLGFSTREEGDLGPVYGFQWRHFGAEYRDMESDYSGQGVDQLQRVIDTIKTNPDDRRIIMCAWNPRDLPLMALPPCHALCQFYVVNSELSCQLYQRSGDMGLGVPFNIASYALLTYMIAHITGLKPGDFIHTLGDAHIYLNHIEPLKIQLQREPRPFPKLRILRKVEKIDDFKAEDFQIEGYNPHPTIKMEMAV

Thymidylate synthase [3] = biological target: T1, Thymidylate synthase; assay: Compound was evaluated for the inhibition at a given concentration against Lactobacillus casei Thymidylate synthase; design: species or system Lacticaseibacillus casei
Thymidylate synthase [4] = biological target: T2, Thymidylate synthase; assay: Compound was evaluated for the inhibition at a given concentration against recombinant human Thymidylate synthase

Row | IC50 (Thymidylate synthase [1]) [µM] | IC50 (Thymidylate synthase [2]) [µM] | IC50 (Thymidylate synthase [3]) [µM] | IC50 (Thymidylate synthase [4]) [µM] | Structure (SMILES)
1 | 180 | 180 | – | – | Cc1[nH]c2nc(N)nc(O)c2c1CNc1ccc(C(=O)N[C@H](CCC(=O)O)C(=O)O)cc1
2 | – | – | > 26 | > 25 | Cc1[nH]c2nc(N)nc(O)c2c1CSc1ccncc1
3 | – | – | 360 | – | Cc1[nH]c2nc(N)[nH]c(=O)c2c1CNCc1ccc(C(=O)N[C@H](CCC(=O)O)C(=O)O)cc1
4 | – | – | 90 | – | C#CCN(Cc1c(C)[nH]c2nc(N)nc(O)c12)c1ccc(C(=O)N[C@H](CCC(=O)O)C(=O)O)cc1

Row | Structure (SMILES) | IC50 (Thymidylate synthase [1]) [µM] | IC50 (Thymidylate synthase [2]) [µM] | IC50 (Thymidylate synthase [3]) [µM] | IC50 (Thymidylate synthase [4]) [µM]
5 | Cc1[nH]c2nc(N)[nH]c(=O)c2c1Sc1ccc(C(=O)NC(CCC(=O)O)C(=O)O)cc1 (configuration not stated) | – | – | 0.021 | –

From ChEMBL document CHEMBL1132250, “Synthesis of classical and a nonclassical 2-amino-4-oxo-6-methyl-5-substituted pyrrolo[2,3-d]pyrimidine antifolate inhibitors of thymidylate synthase” (J Med Chem, 1999)
